Experiments:
[1] = target: T1, NHE1 (Homo sapiens, UniProt P19634); test: NHE inhibition FLIPR test (intracellular pH recovery, BCECF) in transfected LAP-1 cells; format: cell-based; details: transfected cell line (parental LAP-1) expressing the NHE-1 subtype, pHi recovery after acidification
T1 construct: expressed in transfected cells
Description: The NHE inhibitory activities (IC50 values) of the compounds according to the invention were determined by a FLIPR test.
The test is performed in the FLIPR (Fluorescent Imaging Plate Reader) equipped with clear-bottomed and black-walled 96-well microtitration plates.
The growth medium for the transfected cells (Iscove +10% foetal calf serum) also comprises G418 as selection antibiotic to ensure the presence of transfected sequences.
The actual test begins by eliminating the growth medium and adding 100 μl of loading buffer per well (5 μM of BCECF-AM [2′,7′-bis(2-carboxyethyl)-5-(6)-carboxyfluoresceine acetoxymethyl ester] in 20 mM of NH4Cl, 115 mM of choline chloride, 1 mM of CaCl2, 5 mM of KCl, 20 mM of HEPES and 5 mM of glucose; pH 7.4 (adjusted with KOH). The cells are then incubated for 20 minutes at 37° C. This incubation results in the loading of the fluorescent dye into the cells, the fluorescence intensity of which depends on the pHi, and on the NH4Cl, which results in a slight basification of the cells.
The precursor BCECF-AM, a non-fluorescent dye, is, as an ester, capable of crossing the membrane. The actual dye, which is incapable of crossing the membrane, is released inside the cell by esterases.
After this 20-minute incubation, the loading buffer, which comprises NH4Cl and free BCECF-AM, is removed by washing three times in the cell washing device (Tecan Columbus), each wash being performed with 400 μl of washing buffer (133.8 mM of choline chloride, 4.7 mM of KCl, 1.25 mM of MgCl2, 1.25 mM of CaCl2, 0.97 mM of K2HPO4, 0.23 mM of KH2PO4, 5 mM of HEPES and 5 mM of glucose; pH 7.4 (adjusted with KOH)). The residual volume remaining in the wells is 90 μl (possibly between 50 and 125 μl). This washing step removes the free BCECF-AM and results in an intracellular acidification (pHi of 6.3-6.4) due to the removal of the external ammonium ions.
As the equilibrium of the intracellular ammonium with the aqueous ammonia and the protons, by removal of the extracellular ammonium and by the subsequent immediate crossing of the aqueous ammonia across the cell membrane, is disrupted, the washing process results in intracellular protons remaining, which is the cause of the intracellular acidification. This acidification can result finally in the death of the cells if it lasts long enough. It is important here for the washing buffer to be free of sodium (<1 mM), otherwise the extracellular sodium ions would result in an immediate increase in the pHi on account of the activity of the cloned NHE isoforms. It is also important for all the buffers used (loading buffer, washing buffer and regeneration buffer) not to contain any HCO3-ions, otherwise the presence of bicarbonate would result in the activation of bicarbonate-dependent systems that disrupt the pHi regulation, which systems are contained in the LAP-1 parental cell line.
The microtiter plates containing acidified cells are then transferred (up to 20 minutes after the acidification) to the FLIPR. In the FLIPR, the intracellular fluorescent dye is activated with light of a wavelength of 488 nm, which is generated by an argon laser, and the measuring parameters (laser power, illumination time and diaphragm of the […] camera integrated into the FLIPR) are chosen such that the average value of the fluorescent signal per well is between 30,000 and 35,000 relative fluorescence units.
The actual measurement in the FLIPR starts with a photograph being taken by the CCD camera every two seconds under software control. After 10 seconds, the increase in the intracellular pH is initiated by adding 90 μl of regeneration buffer (133.8 mM of NaCl, 4.7 mM of KCl, 1.25 mM of MgCl2, 1.25 mM of CaCl2, 0.97 mM of K2HPO4, 0.23 mM of KH2PO4, 10 mM of HEPES and 5 mM of glucose; pH 7.4 (adjusted with NaOH)) using a 96-well pipette device incorporated into the FLIPR. Some wells, to which is added pure regeneration buffer, serve as positive controls (100% NHE activity). […]

T1 sequence (P19634 whole entry, species assumed): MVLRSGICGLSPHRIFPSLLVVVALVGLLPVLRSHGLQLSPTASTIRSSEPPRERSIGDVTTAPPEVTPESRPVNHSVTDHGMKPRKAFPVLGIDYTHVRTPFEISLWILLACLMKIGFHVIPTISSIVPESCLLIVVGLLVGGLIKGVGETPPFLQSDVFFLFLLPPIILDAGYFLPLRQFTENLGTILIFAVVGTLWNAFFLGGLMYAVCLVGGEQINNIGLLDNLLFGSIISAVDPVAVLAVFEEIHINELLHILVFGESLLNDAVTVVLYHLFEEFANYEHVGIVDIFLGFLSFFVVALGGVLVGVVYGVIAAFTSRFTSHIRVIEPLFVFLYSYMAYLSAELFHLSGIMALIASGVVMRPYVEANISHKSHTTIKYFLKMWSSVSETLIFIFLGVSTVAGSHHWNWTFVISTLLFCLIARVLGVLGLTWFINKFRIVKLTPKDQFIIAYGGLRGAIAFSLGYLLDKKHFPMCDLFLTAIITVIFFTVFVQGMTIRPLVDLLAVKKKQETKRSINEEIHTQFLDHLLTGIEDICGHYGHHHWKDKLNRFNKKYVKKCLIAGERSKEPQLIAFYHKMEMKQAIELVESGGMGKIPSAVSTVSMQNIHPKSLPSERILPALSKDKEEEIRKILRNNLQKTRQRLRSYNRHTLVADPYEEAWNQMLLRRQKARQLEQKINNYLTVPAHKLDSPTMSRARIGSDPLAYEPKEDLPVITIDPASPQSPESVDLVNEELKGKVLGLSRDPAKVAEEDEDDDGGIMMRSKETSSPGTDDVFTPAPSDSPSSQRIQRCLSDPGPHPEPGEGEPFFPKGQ

Row | SMILES | IC50 [1] [µM] | melting point [°C]
1 | NC(N)=NC(=O)CC1c2ccccc2C(=O)N1CC1CC1 (stereo not shown) [Example 8, N-[2-(2-Cyclopropylmethyl-3-oxo-2,3-dihydro-1H-isoindol-1-yl)acetyl]guanidine] | 0.063 | 229
2 | CC(C)CN1C(=O)c2ccc(C(C)(C)C)cc2C1CC(=O)N=C(N)N (stereo not shown) [Example 10, N-[2-(6-tert-Butyl-2-isobutyl-3-oxo-2,3-dihydro-1H-isoindol-1-yl)acetyl]guanidine] | 0.015 | 214 to 215
3 | CC(C)CN1C(=O)c2cc(C(C)(C)C)ccc2C1CC(=O)N=C(N)N (stereo not shown) [Example 11, N-[2-(5-tert-Butyl-2-isobutyl-3-oxo-2,3-dihydro-1H-isoindol-1-yl)acetyl]guanidine] | 0.011 | 262 to 263
4 | CC(C)CN1C(=O)c2cc(C(F)(F)F)ccc2C1CC(=O)N=C(N)N (stereo not shown) [Example 14, N-[2-(2-Isobutyl-3-oxo-5-trifluoromethyl-2,3-dihydro-1H-isoindol-1-yl)-acetyl]-guanidine] | 0.102 | 224
5 | CC(C)CN1C(=O)c2ccc(C(F)(F)F)cc2C1CC(=O)N=C(N)N (stereo not shown) [Example 15, N-[2-(2-Isobutyl-3-oxo-6-trifluoromethyl-2,3-dihydro-1H-isoindol-1-yl)-acetyl]guanidine] | 0.016 | 154
6 | CC(C)CN1C(=O)c2cc(Cl)c(Cl)cc2C1CC(=O)N=C(N)N (stereo not shown) [Example 18, N-[2-(5,6-Dichloro-2-isobutyl-3-oxo-2,3-dihydro-1H-isoindol-1-yl)acetyl]guanidine] | 0.026 | 154
7 | CC(C)CN1C(=O)c2c(F)ccc(F)c2C1CC(=O)N=C(N)N (stereo not shown) [Example 19, N-[2-(4,7-Difluoro-2-isobutyl-3-oxo-2,3-dihydro-1H-isoindol-1-yl)acetyl]guanidine] | 0.011 | 212
8 | Cc1ccc2c(c1)C(=O)N(CC(C)C)C2CC(=O)N=C(N)N (stereo not shown) [Example 34, N-[2-(2-Isobutyl-5-methyl-3-oxo-2,3-dihydro-1H-isoindol-1-yl)acetyl]guanidine] | 0.025 | 266
